Data: patent US9168278B2, “Use for cannabinoid” (GW Pharma Limited, priority 2004, dated 2015)
Where two headings read alike, the source gives them in different places.

Assays:
[1] = tested on: mouse isolated vas deferens; experiment: Electrically-evoked contractions of the mouse isolated vas deferens
Description: Experiments were also carried out with the mouse isolated vas deferens, a tissue in which cannabinoid receptor agonists such as R-(+)-WIN55212, CP55940, THC and 2-arachidonoyl ethanolamide (anandamide) can inhibit electrically-evoked contractions (Devane et al., 1992; Pertwee et al., 1995).
Cannabinoid receptor agonists are thought to inhibit the electrically evoked contractions by acting on prejunctional neuronal cannabinoid CB1 receptors to inhibit release of the contractile neurotransmitters, ATP, (acting on postjunctional P2X purinoceptors), and noradrenaline, (acting on postjunctional α1-adrenoceptors), (Trendelenberg et al., 2000).
(§1) Vasa deferentia were obtained from albino MF1 mice weighing 31 to 59 g. The tissues were mounted vertically in 4 ml organ baths. They were then subjected to electrical stimulation of progressively greater intensity followed by an equilibration procedure in which they were exposed to alternate periods of stimulation (2 min) and rest (10 min) until contractions with consistent amplitudes were obtained (Thomas et al., 2004). These contractions were monophasic and isometric and were evoked by 0.5 s trains of pulses of 110% maximal voltage (train frequency 0.1 Hz; pulse frequency 5 Hz; pulse duration 0.5 ms).
Except in experiments with phenylephrine, all drug additions were made to the organ baths after the equilibration period and there was no washout between these additions. In most experiments there was an initial application of a potential antagonist or its vehicle. This was followed 28 min later by a 2 min period of electrical stimulation at the end of which the lowest of a series of concentrations of the twitch inhibitors, R-(+)-WIN55212, CP55940, THC, anandamide, (−)-7-hydroxy-cannabidiol-dimethylheptyl or clonidine, was applied.
After a period of rest, the tissues were electrically stimulated for 2 min and then subjected to a further addition of twitch inhibitor.
This cycle of drug addition, rest and 2 min stimulation was repeated so as to construct cumulative concentration-response curves. Only one concentration-response curve was constructed per tissue. Rest periods were 3 min for clonidine, 13 min for R-(+)-WIN55212, CP55940 and anandamide, 28 min for THC and THCV, and 58 min for (−)-7-hydroxy-cannabidiol-dimethylheptyl.
Experiments were also performed with capsaicin. This drug was added at intervals of 3 min and the tissues were not rested from electrical stimulation between these additions.
In some experiments, cumulative concentration-response curves for THCV were constructed without prior addition of any other compound, again using a cycle of drug addition, 28 min rest and 2 min stimulation.
(§2) Inhibition of the electrically-evoked twitch response of the vas deferens has been expressed in percentage terms and this has been calculated by comparing the amplitude of the twitch response after each addition of a twitch inhibitor with its amplitude immediately before the first addition of the inhibitor. Contractile responses to phenylephrine and β,γ-methylene-ATP have been expressed as increases in tension (g).
Values for EC50, for maximal effect (Emax) and for the s.e.mean or 95% confidence limits of these values have been calculated by nonlinear regression analysis using the equation for a sigmoid concentration-response curve (GraphPad Prism).
(§3) The apparent dissociation constant (KB) values for antagonism of agonists by THCV in the vas deferens or [^35S]GTPγS binding assay have been calculated by Schild analysis from the concentration ratio, defined as the concentration of an agonist that elicits a response of a particular size in the presence of a competitive reversible antagonist at a concentration, B, divided by the concentration of the same agonist that produces an identical response in the absence of the antagonist.
Mean values have been compared using Student's two-tailed t-test for unpaired data or one-way analysis of variance (ANOVA) followed by Dunnett's test (GraphPad Prism). […]

[2] = tested on: mouse isolated vas deferens (P2 receptor agonist β,γ-methylene-ATP); experiment: Contractile responses of the vas deferens to β,γ-methylene-ATP; conditions: for contractions induced by β,γ-methylene-ATP: at 1 μM
Description: as §1
In experiments with β,γ-methylene-ATP, no electrical stimuli were applied after the equilibration procedure. Log concentration-response curves of β,γ-methylene-ATP were constructed cumulatively without washout. THCV, WIN or drug vehicle were added 30 min before the first addition of β,γ-methylene-ATP, each subsequent addition of which was made immediately after the effect of the previous dose had reached a plateau (dose cycles of 1 to 2 min).
as §2

[3] = tested on: mouse isolated vas deferens (α1-adrenoceptor agonist phenylephrine hydrochloride); experiment: Contractile responses of the vas deferens to phenylephrine; conditions: for contractions induced by phenylephrine: at 1 μM
Description: as §1
Only one addition of phenylephrine was made to each tissue and this was carried out 30 min after the addition of THCV, WIN or drug vehicle.
as §2

[4] = molecular target: T1, CB1 receptors (mouse brain membranes) (Mus musculus, UniProt P47746); experiment: Radioligand displacement assay, mouse brain membranes; assay type: binding
T1 construct: membranes prepared from healthy brain tissue, which is densely populated with CB1 but not CB2 receptors; from tissue; host or cells: mouse brain membranes
Description: Experiments were performed with membranes prepared from healthy brain tissue, which is densely populated with CB1 but not CB2 receptors (reviewed in Howlett et al. 2002).
Binding was initiated by the addition of either the brain membranes (33 μg protein per tube) or the transfected hCB2 cells (25 μg protein per tube).
All assays were performed at 37° C. for 60 min before termination by addition of ice-cold wash buffer (50 mM Tris buffer, 1 mg ml^−1 bovine serum albumin, pH 7.4) and vacuum filtration using a 24-well sampling manifold and GF/B filters that had been soaked in wash buffer at 4° C. for at least 24 h.
Each reaction tube was washed six times with a 1.2 ml aliquot of wash buffer. The filters were oven-dried for 60 min and then placed in 5 ml of scintillation fluid. Radioactivity was quantified by liquid scintillation spectrometry.
Specific binding was defined as the difference between the binding that occurred in the presence and absence of 1 μM unlabelled CP55940. THCV was stored as a stock solution of 10 mM in DMSO, the vehicle concentration in all assay tubes being 0.1% DMSO.
Values are expressed as means and variability as s.e.mean or as 95% confidence limits. […] Its dissociation constant (Ki value) was calculated using the equation of Cheng & Prusoff (1973).

[5] = molecular target: T2, hCB2 receptors (CHO cells transfected with hCB2) (Homo sapiens, UniProt P34972); experiment: Radioligand displacement assay, CHO-hCB2 cell membranes; conditions: Cheng & Prusoff, read-out: mean Ki, displacement of [3H]CP55940 from specific binding sites
T2 construct: expressed in transfected cells; host or cells: CHO cells

[6] = molecular target: T3, cannabinoid CB1 receptors (mouse brain membranes) (Mus musculus, UniProt P47746); experiment: [35S]GTPγS binding assay, mouse brain membranes; assay type: biochemical; conditions: for Kb: Mean apparent KB, brain membranes, THCV 1000 nM
T3 construct: membranes prepared from healthy brain tissue, which is densely populated with CB1 but not CB2 receptors; from tissue; host or cells: mouse brain membranes
Description: (§4) The assays were carried out with GTPγS binding buffer (50 mM Tris-HCl; 50 mM Tris-Base; 5 mM MgCl2; 1 mM EDTA; 100 mM NaCl; 1 mM DTT; 0.1% BSA) in the presence of [^35S]GTPγS and GDP, in a final volume of 500 μl. Binding was initiated by the addition of [^35S]GTPγS to the tubes. Nonspecific binding was measured in the presence of 30 μM GTPγS.
(§5) The drugs were incubated in the assay for 60 min at 30° C. The reaction was terminated by a rapid vacuum filtration method using Tris buffer (50 mM Tris-HCl; 50 mM Tris-Base; 0.1% BSA), and the radioactivity was quantified by liquid scintillation spectrometry.
The concentrations of [^35S]GTPγS and GDP present in the assay varied depending on whether the assay was conducted with mouse brain or transfected cell membranes.
Additionally, mouse brain membranes were preincubated for 30 minutes at 30° C. with 0.5 U ml^−1 adenosine deaminase to remove endogenous adenosine. Agonists and antagonists were stored as a stock solution of 1 or 10 mM in DMSO, the vehicle concentration in all assay tubes being 0.11% DMSO.
as §3
Mean values have been compared using Student's two-tailed t-test for unpaired data or one-way analysis of variance (ANOVA) followed by Dunnett's test (GraphPad Prism). A P-value <0.05 was considered to be significant.

[7] = molecular target: T4, transfected cannabinoid CB2 receptors (CHO-hCB2 cell membranes) (Homo sapiens, UniProt P34972); experiment: [35S]GTPγS binding assay, CHO-hCB2 cell membranes; assay type: biochemical
T4 construct: expressed in transfected cells; host or cells: CHO cells
Description: The conditions used for measuring agonist-stimulated [^35S]GTPγS binding to transfected cannabinoid CB2 receptors were adapted from those used by MacLennan et al. (1998) and Griffin et al. (1999).
as §4, §5
The concentrations of [^35S]GTPγS and GDP present in the assay varied depending on whether the assay was conducted with mouse brain or transfected cell membranes. […]
Net agonist-stimulated [^35S]GTPγS binding values were calculated by subtracting basal binding values (obtained in the absence of agonist) from agonist-stimulated values (obtained in the presence of agonist) as detailed elsewhere (Ross et al., 1999a). […]

T1 sequence (P47746 whole entry): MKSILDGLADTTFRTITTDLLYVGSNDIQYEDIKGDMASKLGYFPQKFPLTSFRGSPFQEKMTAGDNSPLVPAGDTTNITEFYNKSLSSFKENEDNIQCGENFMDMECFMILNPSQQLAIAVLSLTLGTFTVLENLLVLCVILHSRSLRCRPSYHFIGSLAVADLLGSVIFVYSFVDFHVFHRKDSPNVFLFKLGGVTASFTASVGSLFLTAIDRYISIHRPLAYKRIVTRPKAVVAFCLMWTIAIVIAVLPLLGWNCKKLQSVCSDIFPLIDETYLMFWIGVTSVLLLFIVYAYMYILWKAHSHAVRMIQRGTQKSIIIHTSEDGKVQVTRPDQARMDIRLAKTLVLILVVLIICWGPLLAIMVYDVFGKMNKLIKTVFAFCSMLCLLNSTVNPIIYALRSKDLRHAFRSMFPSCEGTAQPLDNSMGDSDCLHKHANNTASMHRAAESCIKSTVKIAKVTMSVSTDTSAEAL
T3 sequence (P47746 whole entry): as above
T4 sequence (P34972 whole entry): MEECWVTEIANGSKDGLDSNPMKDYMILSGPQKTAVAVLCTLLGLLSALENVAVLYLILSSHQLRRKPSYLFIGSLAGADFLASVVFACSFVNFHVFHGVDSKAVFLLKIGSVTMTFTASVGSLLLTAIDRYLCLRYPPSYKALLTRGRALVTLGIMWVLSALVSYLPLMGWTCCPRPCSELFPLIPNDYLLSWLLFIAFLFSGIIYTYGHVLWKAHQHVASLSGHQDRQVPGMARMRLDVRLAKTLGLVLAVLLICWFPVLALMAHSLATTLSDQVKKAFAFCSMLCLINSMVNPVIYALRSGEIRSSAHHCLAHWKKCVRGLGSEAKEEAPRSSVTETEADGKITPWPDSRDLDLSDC
T2 sequence (P34972 whole entry): as above

Question: Which “inhibition of electrically-evoked contractions” value ([1]; at 1 μM) does the source give for `Cc1c(C(=O)c2cccc3ccccc23)c2cccc3c2n1[C@H](CN1CCOCC1)CO3` [R-(+)-WIN55212, reference compound] here?
Answer: Its value is “markedly attenuated”.

Question: What about the “contractions induced by β,γ-methylene-ATP” value [2] of the same compound?
Answer: Its value is “did not decrease”.

Question: And the “contractions induced by phenylephrine” value [3]?
Answer: The value was “did not decrease”.

Question: Which results are given for `CCCc1cc(O)c2c(c1)OC(C)(C)[C@@H]1CCC(C)=C[C@@H]21` [THCV, tetrahydrocannabivarin]?
Answer: EC50 ([4]; EC50, displacement of [3H]CP55940, mouse brain membranes, n=4 to 8): 98.2 nM; EC50 ([4]; mean EC50, displacement of [3H]R-(+)-WIN55212, mouse brain membranes, n=4 to 7): 61.3 nM; EC50 ([4]; mean EC50, displacement of [3H]SR141716A, mouse brain membranes, n=4 to 6): 86.8 nM; Ki ([4]; mouse brain membranes, Cheng & Prusoff, read-out: mean Ki, displacement of [3H]CP55940 from specific binding sites): 75.4 nM; Ki [5]: 62.8 nM; Kb ([6]; agonist CP55940, SR141716A 10 nM): 93.1 nM; Kb ([6]; agonist R-(+)-WIN55212): 85.4 nM; effect by itself on [35S]GTPγS binding ([6]; mouse brain membranes, at antagonist concentrations): did not affect; Kb [7]: 10.1 nM; effect by itself on [35S]GTPγS binding ([7]; CHO-hCB2 cell membranes, at antagonist concentrations): did not affect; Kb ([1]; Mus musculus, twitch inhibitor 7-OH-CBD-DMH, THCV 100 nM, read-out: Mean apparent KB of THCV): > 100 nM; Kb ([1]; Mus musculus, twitch inhibitor CP55940, THCV 100 nM, read-out: Mean apparent KB of THCV): 10.3 nM; Kb ([1]; Mus musculus, twitch inhibitor R-(+)-WIN55212, THCV 10-1000 nM, Tallarida method, read-out: Mean apparent KB of THCV): 1.5 nM; Kb ([1]; Mus musculus, twitch inhibitor THC, THCV 1000 nM, read-out: Mean apparent KB of THCV): 96.7 nM; Kb ([1]; Mus musculus, twitch inhibitor anandamide, THCV 10 nM, read-out: mean apparent KB for antagonism of anandamide): 1.4 nM; Kb ([1]; Mus musculus, twitch inhibitor anandamide, THCV 100 nM, read-out: Mean apparent KB of THCV): 1.2 nM; Kb ([1]; Mus musculus, twitch inhibitor capsaicin, THCV 100 nM, read-out: Mean apparent KB of THCV): > 100 nM; Kb ([1]; Mus musculus, twitch inhibitor clonidine, THCV 100 nM, read-out: Mean apparent KB of THCV): > 100 nM; Kb ([1]; Mus musculus, twitch inhibitor methanandamide, THCV 100 nM, read-out: Mean apparent KB of THCV): 4.6 nM; EC50 ([1]; Mus musculus, compound alone, read-out: EC50, inhibition of electrically-evoked contractions): 12.7 µM; inhibition of electrically-evoked contractions in presence of SR141716A ([1]; SR141716A 100 nM, n=7): not attenuated; concentration above which electrically-evoked contractions were inhibited ([1]; SR141716A-independent manner): above 3 μM; antagonism of THC-induced twitch inhibition ([1]; THCV 100 nM, n=11): Nor did 100 nM THCV antagonize; inhibition of electrically-evoked contractions ([1]; at 1 μM): no detectable inhibitory effect; inhibition of electrically-evoked contractions ([1]; at 31.6 μM): marked inhibition; contractions induced by β,γ-methylene-ATP [2]: did not induce any significant reduction; contractile responses to β,γ-methylene-ATP ([2]; at 31.6 μM): attenuated; contractions induced by phenylephrine [3]: did not induce any significant reduction; contractile responses to phenylephrine hydrochloride ([3]; at 31.6 μM): attenuated
